≈ marks a conversion by molar mass, not a printed value.

Data set [1] has as its target Dihydroorotate dehydrogenase (quinone), mitochondrial (Homo sapiens, UniProt Q02127). Briefly: Inhibition of C-terminal His6-tagged recombinant human DHODH (29 to 395 residues) N-terminally truncated soluble domain extracted from Escherichia coli phage resistant BL21-DE3 using CoQD/DHA/DCIP as substrates.
For a further data set, the system named is Plasmodium falciparum. Nature of the data set: Antiparasitic activity against asexual blood stage Plasmodium falciparum 3D7 incubated for 72 hrs by SYBR Green assay. Type of data set: functional, organism-based. The following applies: 3D7, 72 h.
Data set [2] can be described thus: Kinetic solubility of compound at pH 6.5 measured after 30 mins by nephelometry. Type of data set: physicochemical. The following applies: buffer; for solubility kinetic at 0.5 h: pH 6.5, read-out: Kinetic_solubility; for Kinetic_solubility: pH 6.5, 0.5 h.
The nature of data set [3]: Metabolic stability in human liver microsomes assessed as intrinsic clearance at 0.5 uM incubated for 60 mins in presence of NADPH by tandem quadrupole-Time of Flight MS. Type of data set: ADME, Microsome. The following applies: 1 h.

Dihydroorotate dehydrogenase (quinone), mitochondrial, sequence (Q02127 whole entry, the tested form may be a part): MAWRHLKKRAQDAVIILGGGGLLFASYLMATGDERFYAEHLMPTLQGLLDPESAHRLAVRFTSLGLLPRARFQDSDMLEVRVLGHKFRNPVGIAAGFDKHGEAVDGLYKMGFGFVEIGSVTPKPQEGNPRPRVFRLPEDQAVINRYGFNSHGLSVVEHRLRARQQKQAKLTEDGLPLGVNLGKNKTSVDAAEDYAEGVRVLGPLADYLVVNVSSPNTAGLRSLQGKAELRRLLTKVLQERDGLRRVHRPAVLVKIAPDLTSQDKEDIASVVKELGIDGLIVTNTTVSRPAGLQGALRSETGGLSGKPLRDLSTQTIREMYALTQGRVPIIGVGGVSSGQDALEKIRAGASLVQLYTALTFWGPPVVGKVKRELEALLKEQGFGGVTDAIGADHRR

In the case of `CC[C@@](O)(c1ccc(C(F)(F)F)nc1)c1c2ccn(C3CC3)c(=O)c2nn1C`, the half-inhibitory concentration (IC50) in data set [1] amounted to 5000 nM. In the data set on Plasmodium falciparum, a half-maximal effect (EC50) was put at 3 nM. In addition, the solubility kinetic at 0.5 h in data set [2] amounted to 40 µM (≈ 15.7 µg/mL). The “intrinsic clearance (CLint)” value in data set [3] is < 3 µL/min/mg.

`Cc1cc(Nc2ccc(S(F)(F)(F)(F)F)cc2)n2nc(C(C)(F)F)nc2n1` [DSM-265]: the EC50 with Plasmodium falciparum was 7 nM.

`CC[C@@](N)(c1ccc(C(F)(F)F)c(Cl)c1)c1c2cnn(C3CC3)c(=O)c2nn1C` returned an EC50 in the data set with Plasmodium falciparum of 3 nM. The solubility kinetic at 0.5 h in data set [2] came out at 20 µM (≈ 8.52 µg/mL). For the same molecule, the “intrinsic clearance (CLint)” value in data set [3] is < 3 µL/min/mg.

With `CCCn1ccc2c(Cc3ccc(C(F)(F)F)nc3)n(C)nc2c1=O`, the concentration giving a half-maximal response (EC50) in the data set on Plasmodium falciparum is 14000 nM.

As to `Cn1nc2c(=O)n(C3CC3)ncc2c1[C@](O)(c1ccc(C(F)(F)F)c(Cl)c1)C1CC1`, the IC50 in data set [1] was > 30000 nM. In the data set on Plasmodium falciparum, this molecule returned a 50% effective concentration (EC50) of 2 nM. Also, in data set [2], the Kinetic_solubility is < 5 µM. In addition, the “intrinsic clearance (CLint)” value in data set [3] is < 3 µL/min/mg.

Turning to `CCn1cc(C2CC2)c2c([C@H](O)c3ccc(C(F)(F)F)nc3)n(C)nc2c1=O`, the half-maximal inhibitory concentration (IC50) in data set [1] is > 100000 nM. For the same molecule, the concentration for a half-maximal effect (EC50) in the data set on Plasmodium falciparum worked out at 8 nM. In data set [2], the solubility kinetic at 0.5 h was determined as 160 µM (≈ 62.8 µg/mL). Also, the “intrinsic clearance (CLint)” value in data set [3] stood at 15 µL/min/mg.

`CC[C@](O)(c1cnc(C(F)(F)F)c(Cl)c1)c1c2cnn(C3CC3)c(=O)c2nn1C` showed a 50% effective concentration (EC50) in the data set with Plasmodium falciparum of 1700 nM.

The molecule `CC[C@@](O)(c1cc(F)c(Cl)c(F)c1)c1c2ccn(C3CC3)c(=O)c2nn1C` yielded an EC50 in the data set on Plasmodium falciparum of 1 nM. The solubility kinetic at 0.5 h in data set [2] is 50 µM (≈ 19.7 µg/mL). Further, in data set [3], the “intrinsic clearance (CLint)” value was 3.2 µL/min/mg.

As to `CCn1ccc2c([C@](O)(c3ccc(C(F)(F)F)nc3)C3CC3)n(C)nc2c1=O`, the IC50 in data set [1] was > 100000 nM. The molecule further displayed a concentration giving a half-maximal response (EC50) in the data set with Plasmodium falciparum of 7 nM. Besides, the solubility kinetic at 0.5 h in data set [2] came to 80 µM (≈ 31.4 µg/mL). For the same molecule, the “intrinsic clearance (CLint)” value in data set [3] was < 3 µL/min/mg.

`CCn1cc(C2CC2)c2c(CN3CCC(F)(F)CC3(C)C)n(C)nc2c1=O`: the 50% inhibitory concentration (IC50) in data set [1] came to 57000 nM. The molecule also gave a 50% effective concentration (EC50) in the data set with Plasmodium falciparum of 35 nM. The solubility kinetic at 0.5 h in data set [2] is 40 µM (≈ 15.1 µg/mL). In data set [3], the “intrinsic clearance (CLint)” value came out at 74 µL/min/mg.

For the molecule `Cn1nc2c(=O)n(C3CC3)ccc2c1[C@](O)(c1ccc(C(F)(F)F)nc1)C(F)(F)F`, in data set [1], the 50% inhibitory concentration (IC50) was > 30000 nM. Further, a half-maximal response in the data set on Plasmodium falciparum (EC50) required 2 nM. Further, in data set [2], the solubility kinetic at 0.5 h was found to be 50 µM (≈ 21.6 µg/mL). Besides, the “intrinsic clearance (CLint)” value in data set [3] is < 3 µL/min/mg.

Take `CCn1cc(C2CC2)c2c(Cc3cnc(C(F)(F)F)c(Cl)c3)n(C)nc2c1=O`: in data set [1], the 50% inhibitory concentration (IC50) came out at 60000 nM. The same molecule came in with an EC50 in the data set with Plasmodium falciparum of 35 nM. Moreover, the solubility kinetic at 0.5 h in data set [2] is 50 µM (≈ 20.5 µg/mL). In addition, the “intrinsic clearance (CLint)” value in data set [3] came to 28 µL/min/mg.

Take `Cn1nc2c(=O)n(C3CC3)ccc2c1[C@@](O)(c1cnc(C(F)(F)F)c(Cl)c1)C(F)(F)F`: the half-maximal effective concentration (EC50) with Plasmodium falciparum was 410 nM.

Consider `CCn1cc(C2CC2)c2c(CN3CCC(C)(F)CC3)n(C)nc2c1=O`, for which, in data set [1], the IC50 was > 30000 nM. This molecule returned an EC50 in the data set on Plasmodium falciparum of 18 nM. Also, the Kinetic_solubility in data set [2] is > 100 µM. The “intrinsic clearance (CLint)” value in data set [3] was 18 µL/min/mg.

Consider `CCn1cc(C2CC2)c2c(CN3CCCC(F)(F)C3)n(C)nc2c1=O`, for which the EC50 in the data set on Plasmodium falciparum came out at 93 nM. The solubility kinetic at 0.5 h in data set [2] was 80 µM (≈ 28 µg/mL). In addition, the “intrinsic clearance (CLint)” value in data set [3] was 26 µL/min/mg.

Regarding `CCn1cc(C2CC2)c2c([C@@H](O)c3ccc(C(F)(F)F)nc3)n(C)nc2c1=O`, the 50% effective concentration (EC50) in the data set with Plasmodium falciparum came to 2100 nM.

With `Cn1nc2c(=O)n(C3CC3)ncc2c1[C@@](O)(c1cnc(C(F)(F)F)c(Cl)c1)C(F)(F)F`, the EC50 in the data set with Plasmodium falciparum was found to be 700 nM.

In the case of `Cn1nc2c(=O)n(C3CC3)ccc2c1[C@](O)(c1ccc(C(F)(F)F)c(Cl)c1)C(F)(F)F`, the IC50 in data set [1] was 4300 nM. Moreover, in data set [2], the solubility kinetic at 0.5 h was 5 µM (≈ 2.33 µg/mL). Further, the “intrinsic clearance (CLint)” value in data set [3] is < 3 µL/min/mg.

In the data set on Plasmodium falciparum, `CC[C@@](O)(c1cnc(C(F)(F)F)c(Cl)c1)c1c2ncn(C3CC3)c(=O)c2nn1C` returned an EC50 of 1 nM. For the same molecule, the Kinetic_solubility in data set [2] was > 100 µM. For the same molecule, the “intrinsic clearance (CLint)” value in data set [3] amounted to 3.7 µL/min/mg.

The values are drawn from ChEMBL document CHEMBL6087456 (J Med Chem, 2025).
